{"source": "patent US20250034167A1", "about": "“HETEROCYCLIC COMPOUNDS AND METHODS OF USE” (AMGEN INC., priority 2021, published 2025)"}
{"tested_on": "Phosphorylation of ERK1/2 in AsPC-1 cells", "experiment": "Phospho-ERK1/2 MSD Assay", "format": "cell-based", "conditions": "Homo sapiens, ASPC1, 2 h, read-out: 2 h p-ERK (AsPC-1 cells), IC50, AsPC-1 cells, 2 h compound treatment", "protocol": "(§1) Sixteen hours prior to compound treatment, AsPC-1 cells were seeded in 96-well cell culture plates at a density of 25,000 cells/well and incubated at 37° C., 5% CO2. A compound dose-response titration was diluted in growth media, added to appropriate wells of a cell culture plate, and then incubated at 37° C., 5% CO2 for 2 hours.", "units": {"IC50": "nM"}}
{"smiles": "CCc1c(F)ccc2cc(O)cc(-c3ncc4c(N5CCC[C@@H](NC(=S)NCCOC)C5)nc(OC[C@@]56CCCN5C[C@H](F)C6)nc4c3F)c12", "note": "[Example 74, 1-((R)-1-(7-(8-ethyl-7-fluoro-3-hydroxynaphthalen-1-yl)-8-fluoro-2-(((2R,7aS)-2-fluorotetrahydro-1H-pyrrolizin-7a(5H)-yl)methoxy)pyrido[4,3-d]pyrimidin-4-yl)piperidin-3-yl)-3-(2-methoxyethyl)thiourea]", "IC50": 2710}
{"smiles": "CCc1c(F)ccc2cc(O)cc(-c3ncc4c(N5CCCCC(=O)C5)nc(OC[C@@]56CCCN5C[C@H](F)C6)nc4c3F)c12", "note": "[Example 127, 1-(7-(8-Ethyl-7-fluoro-3-hydroxynaphthalen-1-yl)-8-fluoro-2-(((2R,7aS)-2-fluorotetrahydro-1H-pyrrolizin-7a(5H)-yl)methoxy)pyrido[4,3-d]pyrimidin-4-yl)azepan-3-one]", "IC50": 8}
{"smiles": "CCc1c(F)ccc2cc(O)cc(-c3ncc4c(N5CCC[C@@](C)(O)C5)nc(OCC5(CN(C)C)CC5)nc4c3F)c12", "note": "[Example 180, (R)-1-(2-((1-((Dimethylamino)methyl)cyclopropyl)methoxy)-7-(8-ethyl-7-fluoro-3-hydroxynaphthalen-1-yl)-8-fluoropyrido[4,3-d]pyrimidin-4-yl)-3-methylpiperidin-3-ol]", "IC50": 12}
{"smiles": "CCc1c(F)ccc2cc(O)cc(-c3ncc4c(N5CCC[C@@](C)(O)C5)nc(OC[C@@]56CCCN5C[C@H](F)C6)nc4c3C)c12", "note": "[Example 169, (R)-1-(7-(8-Ethyl-7-fluoro-3-hydroxynaphthalen-1-yl)-2-(((2R,7aS)-2-fluorotetrahydro-1H-pyrrolizin-7a(5H)-yl)methoxy)-8-methylpyrido[4,3-d]pyrimidin-4-yl)-3-methylpiperidin-3-ol]", "IC50": 40}
{"smiles": "CCc1c(F)ccc2cc(O)cc(-c3ncc4c(N5CCC[C@@](C)(NC(=O)OC)C5)nc(OC[C@@]56CCCN5C[C@H](F)C6)nc4c3F)c12", "note": "[Example 77, Methyl ((R)-1-(7-(8-ethyl-7-fluoro-3-hydroxynaphthalen-1-yl)-8-fluoro-2-(((2R,7aS)-2-fluorotetrahydro-1H-pyrrolizin-7a(5H)-yl)methoxy)pyrido[4,3-d]pyrimidin-4-yl)-3-methylpiperidin-3-yl)carbamate]", "IC50": 1530}
{"smiles": "CCc1c(F)ccc2cc(O)cc(-c3ncc4c(N5CCC[C@@H](CO)C5)nc(OC[C@@]56CCCN5C[C@H](F)C6)nc4c3F)c12", "note": "[Example 128, 5-Ethyl-6-fluoro-4-(8-fluoro-2-(((2R,7aS)-2-fluorotetrahydro-1H-pyrrolizin-7a(5H)-yl)methoxy)-4-((R)-3-(hydroxymethyl)piperidin-1-yl)pyrido[4,3-d]pyrimidin-7-yl)naphthalen-2-ol]", "IC50": 293}
{"smiles": "CCc1c(F)ccc2cc(O)cc(-c3ncc4c(N5CCC[C@@](C)(NC(C)=O)C5)nc(OC[C@@]56CCCN5C[C@H](F)C6)nc4c3F)c12", "note": "[Example 76, N-((R)-1-(7-(8-Ethyl-7-fluoro-3-hydroxynaphthalen-1-yl)-8-fluoro-2-(((2R,7aS)-2-fluorotetrahydro-1H-pyrrolizin-7a(5H)-yl)methoxy)pyrido[4,3-d]pyrimidin-4-yl)-3-methylpiperidin-3-yl)acetamide]", "IC50": 1100}
{"smiles": "CCc1c(F)ccc2cccc(-c3ncc4c(N5CCC[C@@](C)(O)C5)nc(OC[C@@]56CCCN5C[C@H](F)C6)nc4c3F)c12", "note": "[Example 48, (R)-1-(7-(8-Ethyl-7-fluoronaphthalen-1-yl)-8-fluoro-2-(((2R,7aS)-2-fluorotetrahydro-1H-pyrrolizin-7a(5H)-yl)methoxy)pyrido[4,3-d]pyrimidin-4-yl)-3-methylpiperidin-3-ol]", "IC50": 341}
{"smiles": "CCc1c(F)ccc2cc(O)cc(-c3ncc4c(N5CC[C@H](F)[C@H](O)C5)nc(OC[C@@]56CCCN5C[C@H](F)C6)nc4c3F)c12", "note": "[Example 47, (3R,4S)-1-(7-(8-Ethyl-7-fluoro-3-hydroxynaphthalen-1-yl)-8-fluoro-2-(((2R,7aS)-2-fluorotetrahydro-1H-pyrrolizin-7a(5H)-yl)methoxy)pyrido[4,3-d]pyrimidin-4-yl)-4-fluoropiperidin-3-ol]", "IC50": 222}
{"smiles": "CCc1c(F)ccc2cc(O)cc(-c3ncc4c(N5CCC=CC(=O)C5)nc(OC[C@@]56CCCN5C[C@H](F)C6)nc4c3F)c12", "note": "[Example 134, 1-(7-(8-Ethyl-7-fluoro-3-hydroxynaphthalen-1-yl)-8-fluoro-2-(((2R,7aS)-2-fluorotetrahydro-1H-pyrrolizin-7a(5H)-yl)methoxy)pyrido[4,3-d]pyrimidin-4-yl)-1,2,6,7-tetrahydro-3H-azepin-3-one]", "IC50": 259}
{"smiles": "CCc1c(F)ccc2cc(O)cc(-c3ncc4c(N5CCC[C@](C)(N)C5)nc(OC[C@@]56CCCN5C[C@H](F)C6)nc4c3F)c12", "note": "[Example 45, 4-(4-((S)-3-Amino-3-methylpiperidin-1-yl)-8-fluoro-2-(((2R,7aS)-2-fluorotetrahydro-1H-pyrrolizin-7a(5H)-yl)methoxy)pyrido[4,3-d]pyrimidin-7-yl)-5-ethyl-6-fluoronaphthalen-2-ol]", "IC50": 2960}
{"smiles": "CCc1c(F)ccc2cc(O)cc(-c3ncc4c(N5CCC[C@@](C)(O)C5)nc(OC[C@@]56CCCN5C[C@H](F)C6)nc4c3Cl)c12", "note": "[Example 168, (R)-1-(8-Chloro-7-(8-ethyl-7-fluoro-3-hydroxynaphthalen-1-yl)-2-(((2R,7aS)-2-fluorotetrahydro-1H-pyrrolizin-7a(5H)-yl)methoxy)pyrido[4,3-d]pyrimidin-4-yl)-3-methylpiperidin-3-ol]", "IC50": 34}
{"smiles": "CCc1c(F)ccc2cc(O)cc(-c3ncc4c(N5CCCC(OC)C5)nc(OC[C@@]56CCCN5C[C@H](F)C6)nc4c3F)c12", "note": "(stereo partly drawn) [Example 15, 5-Ethyl-6-fluoro-4-(8-fluoro-2-(((2R,7aS)-2-fluorotetrahydro-1H-pyrrolizin-7a(5H)-yl)methoxy)-4-(3-methoxypiperidin-1-yl)pyrido[4,3-d]pyrimidin-7-yl)naphthalen-2-ol]", "IC50": 1480}
{"smiles": "CCc1c(F)ccc2cc(O)cc(-c3ncc4c(N5CCCC(=O)CC5)nc(OC[C@@]56CCCN5C[C@H](F)C6)nc4c3F)c12", "note": "[Example 95, 1-(7-(8-Ethyl-7-fluoro-3-hydroxynaphthalen-1-yl)-8-fluoro-2-(((2R,7aS)-2-fluorotetrahydro-1H-pyrrolizin-7a(5H)-yl)methoxy)pyrido[4,3-d]pyrimidin-4-yl)azepan-4-one]", "IC50": 74}
{"smiles": "CCc1c(F)ccc2cc(O)cc(-c3ncc4c(N5CC6CC5C(C)(O)C6)nc(OC[C@@]56CCCN5C[C@H](F)C6)nc4c3F)c12", "note": "(stereo partly drawn) [Example 71, 2-(7-(8-Ethyl-7-fluoro-3-hydroxynaphthalen-1-yl)-8-fluoro-2-(((2R,7aS)-2-fluorotetrahydro-1H-pyrrolizin-7a(5H)-yl)methoxy)pyrido[4,3-d]pyrimidin-4-yl)-6-methyl-2-azabicyclo[2.2.1]heptan-6-ol]", "IC50": 1170}
{"tested_on": "Phosphorylation of ERK1/2 in AsPC-1 cells", "experiment": "Phospho-ERK1/2 MSD Assay", "format": "cell-based", "conditions": "Homo sapiens, ASPC1, read-out: 2 h p-ERK (AsPC-1 cells), IC50; AsPC-1 cells, 2 h compound treatment", "protocol": "as §1", "units": {"IC50": "nM"}}
{"smiles": "[2H]C([2H])([2H])[C@]1(O)CCCN(c2nc(OC[C@@]34CCCN3C[C@H](F)C4)nc3c(F)c(-c4cc(O)cc5ccc(F)c(CC)c45)ncc23)C1", "note": "[Example 177, (S)-1-(7-(8-Ethyl-7-fluoro-3-hydroxynaphthalen-1-yl)-8-fluoro-2-(((2R,7aS)-2-fluorotetrahydro-1H-pyrrolizin-7a(5H)-yl)methoxy)pyrido[4,3-d]pyrimidin-4-yl)-3-(methyl-d3)piperidin-3-ol]", "IC50": 109}
{"smiles": "CCc1c(F)ccc2cc(O)cc(-c3ncc4c(N5CCC[C@@](C)(O)C5)nc(OC[C@]56CCCN5C[C@H](F)C6)nc4c3F)c12", "note": "[Example 53, (R)-1-(7-(8-ethyl-7-fluoro-3-hydroxynaphthalen-1-yl)-8-fluoro-2-(((2R,7aR)-2-fluorotetrahydro-1H-pyrrolizin-7a(5H)-yl)methoxy)pyrido[4,3-d]pyrimidin-4-yl)-3-methylpiperidin-3-ol]", "IC50": 13}
{"smiles": "CCc1c(F)ccc2cc(O)cc(-c3ncc4c(N5CCC[C@@](C)(O)C5)nc(OC[C@@]56CCCN5C[C@H](F)C6)nc4c3F)c12", "note": "[Example 38, (R)-1-(7-(8-ethyl-7-fluoro-3-hydroxynaphthalen-1-yl)-8-fluoro-2-(((2R,7aS)-2-fluorotetrahydro-1H-pyrrolizin-7a(5H)-yl)methoxy)pyrido[4,3-d]pyrimidin-4-yl)-3-methyl-piperidin-3-ol]", "IC50": 5}
{"smiles": "[2H]C([2H])([2H])[C@@]1(O)CCCN(c2nc(OC[C@@]34CCCN3C[C@H](F)C4)nc3c(F)c(-c4cc(O)cc5ccc(F)c(CC)c45)ncc23)C1", "note": "[Example 176, (R)-1-(7-(8-Ethyl-7-fluoro-3-hydroxynaphthalen-1-yl)-8-fluoro-2-(((2R,7aS)-2-fluorotetrahydro-1H-pyrrolizin-7a(5H)-yl)methoxy)pyrido[4,3-d]pyrimidin-4-yl)-3-(methyl-d3)piperidin-3-ol]", "IC50": 5}
{"smiles": "CCc1c(F)ccc2cc(O)cc(-c3ncc4c(N5CCC[C@@](C)(O)C5)nc(OC[C@]56CCCN5C[C@@H](F)C6)nc4c3F)c12", "note": "[Example 178, (R)-1-(7-(8-Ethyl-7-fluoro-3-hydroxynaphthalen-1-yl)-8-fluoro-2-(((2S,7aR)-2-fluorotetrahydro-1H-pyrrolizin-7a(5H)-yl)methoxy)pyrido[4,3-d]pyrimidin-4-yl)-3-methylpiperidin-3-ol bis(2,2,2-trifluoroacetate)]", "IC50": 8}
{"tested_on": "Phosphorylation of ERK1/2 in AsPC-1 cells", "experiment": "Phospho-ERK1/2 MSD Assay", "format": "cell-based", "conditions": "read-out: 2 h p-ERK (AsPC-1 cells), IC50; AsPC-1 cells, 2 h compound treatment", "protocol": "as §1", "units": {"IC50": "nM"}}
{"smiles": "CCc1c(F)ccc2cc(O)cc(-c3ncc4c(N5CCCC(O)(CF)C5)nc(OC[C@@]56CCCN5C[C@H](F)C6)nc4c3F)c12", "note": "(single isomer, unassigned) [Example 172]", "IC50": 86}
{"smiles": "CCc1c(F)ccc2cc(O)cc(-c3ncc4c(N5CCCC(O)(CF)C5)nc(OC[C@@]56CCCN5C[C@H](F)C6)nc4c3F)c12", "note": "(single isomer, unassigned) [Example 171]", "IC50": 2}
